Non-standard residues stand in square brackets, D forms with d. No end group written: not given here. Sta = CC(C)C[C@H](N)[C@@H](O)CC(=O)O
What was measured:
[1] = test system: caspase-3/-7; assay: Caspase-3/-7 in brain of LPS-induced neuroinflammation mice; assay type: in vivo, mouse; conditions: LPS 250 μg/kg i.p. for 3 days, relative to control
Protocol: Adult male C57BL/6JOlaHsd mice (Jackson Laboratories, Bar Harbor, ME, USA) were supplied by Envigo (Venray, Netherlands). Mice were housed in stainless steel cages on a 12-h light (07:00–19:00) and 12-h dark (19:00–07:00) cycle at an ambient temperature of 22 ± 1 °C with a relative humidity of 50–60%. All experiments were carried out during the light phase. Tap water and food pellets (Lactamin R36; Lactamin AB, Södertälje, Sweden) were available ad libitum. Neuroinflammation was induced by the treatment with LPS 250 μg/kg i.p once per day for 3 consequent days followed by decapitation on the 4th day. The animals were allocated to one of four treatment groups (n = 6 per group): (1) LPS-treated mice, (2) mice treated with LPS and the studied compound (30 μmol/kg; i.v.) for 3 days and 120 min before the decapitation on the 4th day (preventative efficacy), (3) mice treated with LPS for 3 days and with the studied compound (30 μmol/kg; i.v.) only for the last 2 days, and (4) control mice treated with 0.9% NaCl solution i.p. once per day for 3 days. After decapitation, mouse blood and brain samples were collected. […] The plasma layer was centrifuged again at 12,000 × g to remove the platelets. Plasma was stored at − 80 °C until analysis. The brains were snap-frozen in liquid nitrogen and stored at − 80 °C until analysis.
The effects of the compounds on the enzyme activity of caspase-3 and caspase-7 were evaluated from the snap-frozen mouse brain. Pieces of tissues (n = 3) were homogenized in 50 mM Tris–HCl (pH 7.4) 1:10 (w/v) with a bead mill homogenizer. […] The enzyme activity was measured with an Apo-ONE Homogenous Caspase-3/7 Assay kit (Promega Corporation, Madison, WI, USA) according to the manufacturer’s instruction. The assay was performed on 96-well plates, each sample having 3 replicates. Each of the sample wells contained 100 μL of the previously collected supernatant and 100 μL of the prepared Apo-ONE reagent. The blank measurement was carried out with the homogenization buffer and Apo-ONE reagent. Once all the samples and reagents were pipetted in the wells, the plate was carefully shaken for 30 s and left for incubation in dark at room temperature. The fluorescence was measured after the incubation with an EnVision 2104 Multilabel Reader (PerkinElmer, Waltham, MA, USA), with λex 499 nm and λem 521 nm. The measurement was repeated on multiple time points between 0.5 and 24 h.

[2] = test system: prostaglandin E2 (PGE2) production; assay: Brain PGE2 production in LPS-induced mice; assay type: in vivo, mouse; conditions: LPS 250 μg/kg per day for 3 days; control 5.72 ± 1.83
Protocol: Adult male C57BL/6JOlaHsd mice (Jackson Laboratories, Bar Harbor, ME, USA) were supplied by Envigo (Venray, Netherlands). Mice were housed in stainless steel cages on a 12-h light (07:00–19:00) and 12-h dark (19:00–07:00) cycle at an ambient temperature of 22 ± 1 °C with a relative humidity of 50–60%. All experiments were carried out during the light phase. Tap water and food pellets (Lactamin R36; Lactamin AB, Södertälje, Sweden) were available ad libitum. Neuroinflammation was induced by the treatment with LPS 250 μg/kg i.p once per day for 3 consequent days followed by decapitation on the 4th day. […]
The effects of the studied compounds to inhibit PGE2 production in the mouse brain were evaluated after LPS-induction as curative and preventative treatments. […] The data were acquired using the Agilent MassHunter Workstation software (version B.06.00) and processed with the Quantitative Analysis (B.07.00) software. The lower limit of quantification (LLOQ) for PGE2 was 1 nM.

[3] = molecular target: T1, LAT1 (Mus musculus, UniProt Q9Z127); assay: Ability to bind to LAT1: inhibition of [14C]-L-leucine uptake in astrocytes; assay type: cell-based; conditions: mouse primary astrocytes, 0.76 μM [14C]-L-leucine, 5 min, 37 °C
T1 construct: endogenous in cells; host or cells: mouse primary astrocytes (C57BL/6JOlaHsd), cortex and hippocampi
T1 sequence (Q9Z127 whole entry): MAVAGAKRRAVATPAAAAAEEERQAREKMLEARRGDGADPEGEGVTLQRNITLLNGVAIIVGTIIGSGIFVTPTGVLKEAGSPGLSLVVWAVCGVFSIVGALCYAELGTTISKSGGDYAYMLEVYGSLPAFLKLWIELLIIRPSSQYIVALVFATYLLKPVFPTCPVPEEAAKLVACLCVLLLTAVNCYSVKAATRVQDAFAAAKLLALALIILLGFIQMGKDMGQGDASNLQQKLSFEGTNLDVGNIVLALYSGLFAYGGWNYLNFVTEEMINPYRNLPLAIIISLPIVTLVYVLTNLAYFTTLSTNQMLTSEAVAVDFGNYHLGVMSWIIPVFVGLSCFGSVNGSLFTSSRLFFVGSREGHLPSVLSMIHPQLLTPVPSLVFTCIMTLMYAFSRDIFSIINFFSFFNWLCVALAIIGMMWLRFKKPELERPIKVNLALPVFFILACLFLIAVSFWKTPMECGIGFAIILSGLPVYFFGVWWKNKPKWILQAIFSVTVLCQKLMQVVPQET
T1 sequence (P10852 whole entry partner): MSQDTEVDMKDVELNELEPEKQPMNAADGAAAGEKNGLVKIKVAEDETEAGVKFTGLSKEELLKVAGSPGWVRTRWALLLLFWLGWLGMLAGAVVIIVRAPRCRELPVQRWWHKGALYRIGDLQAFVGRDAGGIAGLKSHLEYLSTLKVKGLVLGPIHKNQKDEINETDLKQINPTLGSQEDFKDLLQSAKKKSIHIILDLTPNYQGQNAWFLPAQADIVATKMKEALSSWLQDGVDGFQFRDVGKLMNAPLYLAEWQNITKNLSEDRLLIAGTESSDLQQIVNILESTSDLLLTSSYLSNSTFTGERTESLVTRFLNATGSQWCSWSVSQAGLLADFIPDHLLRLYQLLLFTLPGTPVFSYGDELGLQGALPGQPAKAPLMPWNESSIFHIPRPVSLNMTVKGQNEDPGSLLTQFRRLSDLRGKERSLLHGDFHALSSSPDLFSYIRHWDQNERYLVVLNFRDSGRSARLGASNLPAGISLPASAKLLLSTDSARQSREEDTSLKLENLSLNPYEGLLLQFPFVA
Protocol: For the transporter-binding studies, the astrocytes were seeded on 24-well plates with a density of 10 × 10^4 cells/well 3 days before the experiments. After removal of the culture medium, the cells were carefully washed with pre-warmed HBSS (Hank’s balanced salt solution) containing choline chloride (125 mM), KCl (4.8 mM), MgSO4 (1.2 mM), KH2PO4 (1.2 mM), CaCl2 (1.3 mM), glucose (5.6 mM), and HEPES (25 mM) adjusted to pH 7.4 with 1 M NaOH. The cells were pre-incubated with 500 μL of pre-warmed HBSS at 37 °C for 5 min before the experiments. To study the ability of studied compounds to inhibit the uptake of a known LAT1 substrate, the cells were incubated at 37 °C for 5 min with an uptake buffer (HBSS, 250 μL) containing 0.76 μM (0.25 mCi/mL or […]) of [^14C]-L-leucine (PerkinElmer, Waltham, MA, USA) and 0.1–1000 μM of studied compound (or HBSS as blank). After incubation, the uptake was stopped by adding 500 μL of ice-cold HBSS, and the cells were washed two times with ice-cold HBSS (2 × 500 μL). The cells were then lysed with 500 μL of NaOH (0.1 M) for 60 min and the lysate was mixed with 3.5 mL of Emulsifier-Safe cocktail (Ultima Gold, PerkinElmer, Waltham, MA, USA). The radioactivity in the cells was measured by liquid scintillation counting (MicroBeta^2 counter, PerkinElmer Waltham, MA, USA). Half of the maximum inhibitory concentration (IC50) values were calculated by nonlinear regression analysis (fitting the curve to log (concentration) vs. remaining normalized viability).

[4] = molecular target: T2, purified human β-site amyloid precursor protein (APP) cleaving enzyme 1 (BACE1) (Homo sapiens, UniProt P56817); assay: BACE1 FRET inhibition assay; assay type: biochemical; conditions: 0.25 μM, 30 min
T2 construct: purchased AnaSpec, Inc. (Fremont, CA, USA), SensoLyte 520 BACE1 Assay kit
T2 sequence (P56817 22-501 limits assumed): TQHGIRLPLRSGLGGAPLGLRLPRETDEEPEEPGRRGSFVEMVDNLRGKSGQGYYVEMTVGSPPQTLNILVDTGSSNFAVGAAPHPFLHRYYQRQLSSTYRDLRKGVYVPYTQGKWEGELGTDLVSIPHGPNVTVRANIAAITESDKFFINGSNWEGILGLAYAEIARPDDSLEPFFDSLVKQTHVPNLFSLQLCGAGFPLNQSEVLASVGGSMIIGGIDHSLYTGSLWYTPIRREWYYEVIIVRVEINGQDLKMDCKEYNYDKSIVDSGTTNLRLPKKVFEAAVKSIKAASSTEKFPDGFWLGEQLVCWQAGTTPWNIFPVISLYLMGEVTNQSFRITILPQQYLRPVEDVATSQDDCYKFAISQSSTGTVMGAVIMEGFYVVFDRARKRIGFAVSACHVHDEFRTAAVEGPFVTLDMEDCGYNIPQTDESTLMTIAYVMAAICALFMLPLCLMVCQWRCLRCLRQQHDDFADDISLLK
Text: A fluorometric assay was used to screen the inhibitory effect of the studied compounds on purified human β-site amyloid precursor protein (APP) cleaving enzyme 1 (BACE1) using a fluorescence resonance energy transfer (FRET) peptide technique (SensoLyte© 520 BACE1 Assay kit, AnaSpec, Inc., Fremont, CA, USA) according to the manufacturer’s protocol. […] The sequence of the FRET peptide has been derived from the β-secretase cleavage site of β-amyloid precursor protein (APP) with Swedish mutation, which enhances β-secretase to process APP resulting in an early onset of AD. Thus, active β-secretase cleaved the FRET substrate into two separate fragments resulting in the release of HiLyte™ Fluor 488 fluorescence that was measured by the Envision plate reader (EnVision, Perkin Elmer, Waltham, MA, USA) at λex 490 nm and λem 520 nm.

[5] = test system: MCF-7 human breast adenocarcinoma cells; assay: Cell viability of MCF-7 cells with cisplatin co-treatment (resazurin); assay type: cell-based; conditions: 100 μM, 72 h incubation

Which “Brain caspase-3/-7 levels, LPS alone” value [1] does the source give for lipopolysaccharide [LPS] here?
The value was 137%.

What about the “Brain PGE2 production, LPS alone” value [2] of the same compound?
The value was 16.56 ± 2.45 nmol of PGE2/mg tissue.

How did the IC50 [3] turn out when `CNC(=O)COc1ccc(-c2c(C#N)c(NC(=O)c3cccc(C[C@H](N)C(=O)O)c3)n3c(nc4ccccc43)c2C#N)cc1` [LAT1 inhibitor, KMH-233, reference compound] was run?
The IC50 was 14.4 ± 1.2 µM.

And the IC50 ([3]; listed as LAT1-inhibitor)?
Its IC50 is 14 µM.

With “KTEEISEVN-Sta-VAEF-NH2 (KTEEISEVN[Sta]VAEF-NH2; N-terminus assumed; SMILES CC[C@H](C)[C@H](NC(=O)[C@H](CCC(=O)O)NC(=O)[C@H](CCC(=O)O)NC(=O)[C@@H](NC(=O)[C@@H](N)CCCCN)[C@@H](C)O)C(=O)N[C@@H](CO)C(=O)N[C@@H](CCC(=O)O)C(=O)N[C@H](C(=O)N[C@@H](CC(N)=O)C(=O)N[C@@H](CC(C)C)[C@@H](O)CC(=O)N[C@H](C(=O)N[C@@H](C)C(=O)N[C@@H](CCC(=O)O)C(=O)N[C@@H](Cc1ccccc1)C(N)=O)C(C)C)C(C)C) [BACE1 inhibitor, reference compound]” as the compound, how does the “Inhibition of BACE1 activity” value [4] read?
Its value is “ca. 86%”.

For `N.N.[Cl][Pt][Cl]` [cisplatin, reference compound], which “Inhibition of MCF-7 cell growth” value [5] is on record?
The value was 51%.

From paper PMC7515946, “Targeting of Perforin Inhibitor into the Brain Parenchyma Via a Prodrug Approach Can Decrease Oxidative Stress and Neuroinflammation and Improve Cell Survival” (Molecular Neurobiology, 2020)
